Measured values reported in patent publication US9932637B2, “Genetic polymorphisms associated with cardiovascular disorders and drug response, methods of detection and uses thereof” (CELERA CORPORATION, priority 2003, dated 2018).

System: patients with prior myocardial infarction (CARE study)
Experiment: CARE trial: pravastatin vs placebo, recurrent MI (RMI), overall and by ABCA1/NPC1/HSPG2 genotype pattern
Assay type: in vivo, human
Excerpt: In order to identify genetic markers associated with acute coronary events (e.g. MI, stroke, unstable angina, congestive heart failure, etc.) or response to statin treatment for the prevention of coronary events, samples from the Cholesterol and Recurrent Events (CARE) study (a randomized multicentral double-blinded trial on secondary prevention of acute coronary events with pravastatin) (Sacks et al., 1991, Am. J. Cardiol. 68: 1436-1446) were genotyped. A well-documented myocardial infarction (MI) was one of the enrollment criteria for entry into the CARE study. Patients were enrolled in the CARE trial from 80 participating study centers. […] Patients were randomized to receive either 40 mg of pravastatin once daily or a matching placebo. The primary endpoint of the trial was death from coronary heart disease and the median duration of follow-up was 5.0 years (range, 4.0 to 6.2 years). […] Secondary endpoints of other related cardiovascular or metabolic disease events, and changes in clinical variables were also recorded in pravastatin-treated and placebo groups. All individuals included in the study had signed a written informed consent form and the study protocol was approved by the respective Institutional Review Boards (IRBs).
For genotyping SNPs in CARE patient samples, DNA was extracted from blood samples using conventional DNA extraction methods such as the QIA-amp kit from Qiagen. Genotypes were obtained on an ABI PRISM® 7900HT Sequence Detection PCR system (Applied Biosystems, Foster City, Calif.) by kinetic allele-specific PCR, similar to the method described by Germer et al. (Germer S., Holland M. J., Higuchi R. 2000, Genome Res. 10: 258-266).
The genotype data generated from the DNA of patients who participated in the CARE study was analyzed to determine the effect that pravastatin treatment had on the occurrence of RMI in patients with each of the potential genotypes (low risk, protective or high risk, non-protective) for the ABCA1 gene, the NPC1 gene and the […] gene independently.
The effect of pravastatin treatment on the occurrence of RMI in patients with each of the potential genotypes (protective, low risk genotype or non-protective, high risk genotype) for each of the ABCA1 gene, NPC1 gene, and HSPG2 gene alone, and combinations with the other two genes thereof are presented in Table 17.
This is a 50% reduction in risk over a 5 year period for RMI. […] This is an 80% reduction in risk over a 5 year period for RMI.

[1] = Pattern 0, pravastatin vs placebo
[2] = Pattern 2, pravastatin vs placebo
[3] = Pattern 3, pravastatin vs placebo

Structure (SMILES): CC[C@H](C)C(=O)O[C@H]1C[C@H](O)C=C2C=C[C@H](C)[C@H](CC[C@@H](O)C[C@@H](O)CC(=O)O)[C@H]21 [pravastatin]
- No RMI (number of patients) (All, pravastatin arm): 1367
- RMI (number of patients) (All, pravastatin arm): 106
- Risk (of RMI) (All, pravastatin arm): 0.072
- RDStatin (All, pravastatin vs placebo): 0.023
- RRStatin (All, pravastatin vs placebo): 0.76
- 5 year risk of a RMI (CARE patients with pattern 0 genotypes receiving pravastatin): 7.9%
- 5 year risk of a RMI (CARE patients with pattern 2 genotypes receiving pravastatin): 6.8%
- 5 year risk of a RMI (CARE patients with pattern 3 genotype receiving pravastatin): 4.6%
- reduction in risk for RMI in treatment vs. placebo groups (CARE, all patients): 25%
- 5 year risk of having a recurrent MI (RMI) (CARE, all patients who received pravastatin 40 mg once daily): 7.2%
- Cox Proportional Hazard Ratio (HR age-adjusted) for RMI (CARE, all patients, pravastatin vs placebo): 0.75
- Age-adjusted pravastatin effect on RMI, RR (High risk ABCA1 genotype): 0.9567
- Age-adjusted pravastatin effect on RMI, RR (High risk HSPG2 genotype): 0.8097
- Age-adjusted pravastatin effect on RMI, RR (High risk NPC1 genotype): 1.0824
- Age-adjusted pravastatin effect on RMI, RR (High risk, non-protective genotypes (ABCA1, NPC1, HSPG2)): 1.7175
- Age-adjusted pravastatin effect on RMI, RR (Low risk ABCA1, NPC1 and HSPG2 (pattern 3 genotype)): 0.2399
- Age-adjusted pravastatin effect on RMI, RR (Low risk ABCA1 and HSPG2 only): 1.0054
- Age-adjusted pravastatin effect on RMI, RR (Low risk ABCA1 and NPC1 only (pattern 2 genotype)): 0.5258
- Age-adjusted pravastatin effect on RMI, RR (Low risk ABCA1 genotype): 0.5883
- Age-adjusted pravastatin effect on RMI, RR (Low risk HSPG2 genotype): 0.3934
- Age-adjusted pravastatin effect on RMI, RR (Low risk NPC1 and HSPG2 only): 0.2964
- Age-adjusted pravastatin effect on RMI, RR (Low risk NPC1 genotype): 0.5938
- Age-adjusted pravastatin effect on RMI, RR (Low risk, protective ABCA1 only): 0.8765
- Age-adjusted pravastatin effect on RMI, RR (Low risk, protective HSPG2 only): 0.2487
- Age-adjusted pravastatin effect on RMI, RR (Low risk, protective NPC1 only): 0.8954
- No RMI (number of patients) (Pattern 0, pravastatin arm): 906
- RMI (number of patients) (Pattern 0, pravastatin arm): 78
- Risk (of RMI) (Pattern 0, pravastatin arm): 0.079
- RDStatin [1]: 0.001
- RRStatin [1]: 0.98
- No RMI (number of patients) (Pattern 2, pravastatin arm): 342
- RMI (number of patients) (Pattern 2, pravastatin arm): 25
- Risk (of RMI) (Pattern 2, pravastatin arm): 0.068
- RDStatin [2]: 0.057
- RRStatin [2]: 0.55
- No RMI (number of patients) (Pattern 3, pravastatin arm): 62
- RMI (number of patients) (Pattern 3, pravastatin arm): 3
- Risk (of RMI) (Pattern 3, pravastatin arm): 0.046
- RDStatin [3]: 0.147
- RRStatin [3]: 0.24
- HR for RMI, pravastatin vs no statin (pattern 2 genotypes): 0.53
- reduction in risk over a 5 year period for RMI (pattern 2 genotypes): 50%
- HR for RMI, pravastatin vs no statin (pattern 3 genotype): 0.2
- reduction in risk over a 5 year period for RMI (pattern 3 genotype): 80%
